Data: PubChem BioAssay AID1259408 (Genetic Toxicology Data Bank (GENE-TOX), 2018)
Activity calls are given as the source filed them. No rule for the calls is given here.

Tested on: GENE-TOX genotoxicity assays, various organisms and cells
Experiment: GENE-TOX mutagenicity studies

## O=P1(N(CCCl)CCCl)NCCCO1 (stereo not drawn)
Species/Cell Type: Arabidopsis species, Assay Type: Gene mutation, Assay Code: ARM-, Evaluation Type: Evaluation A (Pre-1980)
  mutagenic call: inactive; negative
Species/Cell Type: Chinese hamster ovary (CHO) cells, Assay Type: Forward gene mutation at the HPRT locus, Assay Code: CHO+*, Activation: With metabolic activation, Evaluation Type: Evaluation B (Post-1980)
  mutagenic call: active; positive
Species/Cell Type: Drosophila melanogaster, Assay Type: Sex-linked recessive lethal gene mutation, Assay Code: SRL+, Evaluation Type: Evaluation A (Pre-1980)
  mutagenic call: active; positive
Species/Cell Type: Escherichia coli WP2, Assay Type: Tryptophan reverse gene mutation, Assay Code: WP2+, Evaluation Type: Evaluation A (Pre-1980)
  mutagenic call: active; positive
Species/Cell Type: Escherichia coli WP2 UVRA, Assay Type: Tryptophan reverse gene mutation, Assay Code: WPU+, Evaluation Type: Evaluation A (Pre-1980)
  mutagenic call: active; positive
Species/Cell Type: Escherichia coli polA (W3110 vs P3478), Assay Type: Rec-assay, DNA effects (bacterial DNA repair), Assay Code: RE2+, Evaluation Type: Evaluation A (Pre-1980)
  mutagenic call: active; positive
Species/Cell Type: F1 mouse, Sex: Male, Assay Type: Sperm morphology, Assay Code: SPF+, Evaluation Type: Evaluation A (Pre-1980)
  mutagenic call: active; positive
Species/Cell Type: Fischer rat embryo (RLV/1706) cells, Assay Type: Cell transformation, viral enhanced, Assay Code: CTR+, Evaluation Type: Evaluation A (Pre-1980)
  mutagenic call: active; positive
Species/Cell Type: Human bone marrow, Assay Type: Chromosome aberrations in vivo, Assay Code: CY5+, Evaluation Type: Evaluation A (Pre-1980)
  mutagenic call: active; positive
Species/Cell Type: Human cell culture, Assay Type: Chromosome aberrations in vitro, Assay Code: CYZ+, Evaluation Type: Evaluation A (Pre-1980)
  mutagenic call: active; positive
Species/Cell Type: Human diploid fibroblasts, Assay Type: Unscheduled DNA synthesis (UDS) in vitro, DNA effects, Assay Code: UDHT, Evaluation Type: Evaluation A (Pre-1980)
  mutagenic call: no conclusion
Species/Cell Type: Human lymphocytes or leukocytes, Assay Type: Chromosome aberrations in vitro, Assay Code: CY7+D, Dose Response: With dose response, Evaluation Type: Evaluation A (Pre-1980)
  mutagenic call: active; positive
Species/Cell Type: Human lymphocytes or leukocytes, Assay Type: Chromosome aberrations in vivo, Assay Code: CY8+, Evaluation Type: Evaluation A (Pre-1980)
  mutagenic call: active; positive
Species/Cell Type: Human lymphocytes, Assay Type: Sister-chromatid exchange (SCE) in vitro, Assay Code: SCL+D, Dose Response: With dose response, Evaluation Type: Evaluation B (Post-1980)
  mutagenic call: active; positive
Species/Cell Type: Human lymphocytes, Assay Type: Sister-chromatid exchange (SCE) in vitro, Assay Code: SCLT, Evaluation Type: Evaluation A (Pre-1980)
  mutagenic call: no conclusion
Species/Cell Type: Human lymphocytes, Assay Type: Sister-chromatid exchange (SCE) in vivo, Assay Code: SCY+, Evaluation Type: Evaluation B (Post-1980)
  mutagenic call: active; positive
Species/Cell Type: Human, Assay Type: Sister-chromatid exchange (SCE) in vitro, Assay Code: SC1+D, Dose Response: With dose response, Evaluation Type: Evaluation B (Post-1980)
  mutagenic call: active; positive
Species/Cell Type: Human, Sex: Male, Assay Type: Sperm morphology, Assay Code: SPH+, Evaluation Type: Evaluation A (Pre-1980)
  mutagenic call: active; positive
Species/Cell Type: Mammalian germ cells, Sex: Male, Assay Type: Chromosome aberrations in vivo, Assay Code: CY9+, Evaluation Type: Evaluation A (Pre-1980)
  mutagenic call: active; positive
Species/Cell Type: Mammalian oocytes or early embryo, Assay Type: Chromosome aberrations in vivo, Assay Code: CYO+D, Dose Response: With dose response, Evaluation Type: Evaluation A (Pre-1980)
  mutagenic call: active; positive
Species/Cell Type: Mammalian polychromatic erythrocytes, Assay Type: Micronucleus test, chromosome aberrations, Assay Code: MNT+, Evaluation Type: Evaluation A (Pre-1980)
  mutagenic call: active; positive
Species/Cell Type: Mouse (BALB/c-3T3) cells, Assay Type: Cell transformation, Assay Code: CTB-, Evaluation Type: Evaluation A (Pre-1980)
  mutagenic call: inactive; negative
Species/Cell Type: Mouse (C3H/10T1/2) cells, Assay Type: Cell transformation, Assay Code: CTH+D*, Activation: With metabolic activation, Dose Response: With dose response, Evaluation Type: Evaluation A (Pre-1980)
  mutagenic call: active; positive
Species/Cell Type: Mouse germ cells, Sex: Male, Assay Type: Unscheduled DNA synthesis (UDS) in vivo, DNA effects, Assay Code: UDT+, Evaluation Type: Evaluation A (Pre-1980)
  mutagenic call: active; positive
Species/Cell Type: Mouse lymphoma (L5178Y) cells, Assay Type: Forward gene mutation at the thymidine kinase (TK) locus, chromosome aberrations, Assay Code: L51+*, Activation: With metabolic activation, Evaluation Type: Evaluation A (Pre-1980)
  mutagenic call: active; positive
Species/Cell Type: Mouse, Sex: Female, Assay Type: Spot test, gene mutation, Assay Code: MST+, Evaluation Type: Evaluation A (Pre-1980)
  mutagenic call: active; positive
Species/Cell Type: Mouse, Sex: Male, Assay Type: Heritable translocation test, chromosome aberrations, Assay Code: HTT+, Evaluation Type: Evaluation A (Pre-1980)
  mutagenic call: active; positive
Species/Cell Type: Mouse, Sex: Male, Assay Type: Specific locus test, gene mutation, Assay Code: SLT+, Evaluation Type: Evaluation A (Pre-1980)
  mutagenic call: active; positive
Species/Cell Type: Mouse, Sex: Male, Assay Type: Sperm morphology, Assay Code: SPI+, Evaluation Type: Evaluation A (Pre-1980)
  mutagenic call: active; positive
Species/Cell Type: Nonhuman bone marrow, Assay Type: Chromosome aberrations, in vivo, Assay Code: CY#+D, Dose Response: With dose response, Evaluation Type: Evaluation A (Pre-1980)
  mutagenic call: active; positive
Species/Cell Type: Nonhuman, Assay Type: In vivo carcinogenicity studies, Assay Code: CCG+, Evaluation Type: Evaluation A (Pre-1980)
  call: active; positive
Species/Cell Type: Nonhuman, Assay Type: Sister-chromatid exchange (SCE) in vitro, Assay Code: SC2+D, Dose Response: With dose response, Evaluation Type: Evaluation A (Pre-1980)
  mutagenic call: active; positive
Species/Cell Type: Nonhuman, Assay Type: Sister-chromatid exchange (SCE) in vivo, Assay Code: SC3+D, Dose Response: With dose response, Evaluation Type: Evaluation A (Pre-1980)
  mutagenic call: active; positive
Species/Cell Type: Rabbit, Sex: Male, Assay Type: Sperm morphology, Assay Code: SPRT, Evaluation Type: Evaluation A (Pre-1980)
  mutagenic call: no conclusion
Species/Cell Type: Rat, Sex: Male, Assay Type: Sperm morphology, Assay Code: SPA+, Evaluation Type: Evaluation A (Pre-1980)
  mutagenic call: active; positive
Species/Cell Type: Rodents, Sex: Male, Assay Type: Dominant lethal test, Assay Code: DLT+D, Dose Response: With dose response, Evaluation Type: Evaluation A (Pre-1980)
  mutagenic call: active; positive
Species/Cell Type: Saccharomyces cerevisiae, Assay Type: Forward gene mutation, Assay Code: YEF+, Evaluation Type: Evaluation A (Pre-1980)
  mutagenic call: active; positive
Species/Cell Type: Saccharomyces cerevisiae, Assay Type: Mitotic recombination or gene conversion, Assay Code: YEC+*, Activation: With metabolic activation, Evaluation Type: Evaluation A (Pre-1980)
  mutagenic call: active; positive
Species/Cell Type: Saccharomyces cerevisiae, Assay Type: Mitotic recombination or gene conversion, Assay Code: YEH+, Evaluation Type: Evaluation A (Pre-1980)
  mutagenic call: active; positive
Species/Cell Type: Saccharomyces cerevisiae, Assay Type: Reverse gene mutation, Assay Code: YER+, Evaluation Type: Evaluation A (Pre-1980)
  mutagenic call: active; positive
Species/Cell Type: Salmonella typhimurium (one or more of the five standard strains: TA98, TA100, TA1535, TA1537, and TA1538), Assay Type: Histidine reverse gene mutation, Ames assay, Assay Code: SAL+*, Activation: With metabolic activation, Evaluation Type: Evaluation A (Pre-1980)
  mutagenic call: active; positive
Species/Cell Type: Salmonella typhimurium, Escherichia coli, Serratia marcesens, human lymphoid cells, Saccharomyces cerevisiae, Chinese ha, Assay Type: Forward and reverse gene mutation, mitotic recombination and gene conversion, DNA effects, chromosome aberrations, host-, Assay Code: HM6+, Evaluation Type: Evaluation A (Pre-1980)
  mutagenic call: active; positive
Species/Cell Type: Salmonella typhimurium, Saccharomyces cerevisiae, human leukocytes and diploid fibroblasts, Assay Type: Forward and reverse gene mutation, mitotic recombination and gene conversion, DNA effects, body fluid assay, Assay Code: BFJ+, Evaluation Type: Evaluation A (Pre-1980)
  mutagenic call: active; positive
